Data from patent US9873724B2, “Pro-angiogenic peptides and peptide conjugates” (Yissum Research Development Company of the Hebrew …, priority 2013, dated 2018).
Values joined by “and” are separate entries in the source; they are usually repeats but may differ in a detail not shown here. Equal entries are not always repeated. Square brackets hold non-standard residues; d marks the D form. * marks the point of attachment. Myristoyl = CCCCCCCCCCCCCC(=O)*; Nle = CCCC[C@H](N)C(=O)O

Assays:
[1] = system: C57BL mice, polymicrobial septic mouse model; test: In-vivo septic shock model (cecum ligation and puncture); details: 20 mg/Kg s.c. once a day for 5 days; FIG. 5
Experimental: The polymicrobial septic mouse model of severe sepsis (Belikoff et al. The Journal of Immunology, 2011, 186: 2444-2453), was induced in wild-type (WT) C57BL mice using cecum ligation and puncture (CLP) approach. In summary, mice were anesthetized, a 1.5-cm, longitudinal incision in the lower right quadrant of the abdomen was performed and the cecum was exposed. The distal two third of the cecum was ligated with 4-0 silk suture and punctured doubly with an 18-gauge needle. The cecum was then replaced into the peritoneal cavity and the incision was closed with surgical staples. After that, the mice were resuscitated with sterile saline injected subcutaneously and allowed free access to food and water after awaking.
Following this procedure, mice were then injected s.c. once a day, for 5 days, with either vehicle or with 20 mg/Kg of GPS-725.017 (SEQ ID NO: 12).

mouse aortic rings = test: Aortic ring assay ex-vivo (capillary sprouting from mouse aortic rings in collagen; repeated with VEGF); format: cell-based; set-up: Capillary length 10 μM (10 μM) / Capillary length 20 μM / Capillary length 10 μM: unit not given here
Experimental: Thoracic aortas were dissected from 7- to 8-week-old male SABRA mice. The aortas were immediately transferred to Petri dishes containing BIO-MPM-1. The adventitia and small vessels around the aorta were carefully removed under a dissecting microscope, and transverse cuts of 0.75 mm were made. The resulting aortic rings were extensively rinsed and incubated overnight in BIO-MPM-1 containing penicillin-streptomycin. Subsequently, the rings were embedded in 50 μl collagen mix (7 parts collagen, 1 part 10× Eagle minimal essential medium, MEM, and 2 parts 0.15 M sodium bicarbonate) in 96-well plates (Nunc, Rochester, N.Y.). Solidification of the collagen solution was achieved by raising the pH to neutral and the temperature to 37° C. 150 μl BIO-MPM-1 containing penicillin-streptomycin and the tested factors or peptides) was added to the embedded rings, and the plates were incubated at 37° C. in a humidified 10% CO2 atmosphere. Medium containing factors and/or peptides was refreshed at days 4 and 8. After two weeks, the rings were fixed with 4% formaldehyde for 24 hours, followed by staining with crystal violet (0.02%) dissolved in ethanol and extensive washing to remove excessive stain. The effect of factors and peptides was examined in 4 wells (4 rings of mouse aortic rings) per assay. Micrographs of representative rings were taken using a digital camera (Nikon, Tokyo, Japan). Morphometric analysis of sprouting was performed manually using Image-Pro 4.5 software (Media Cybernetics, Silver Spring, Md.) according to Nissanov et al. (Lab Invest. 1995; 73:734-739). Nonstained rings were subjected to paraffin sections and hematoxylin and eosin (H&E) staining.
FIGS. 1A-1C represents aortic ring capillary length and FIGS. 2A-2C aortic ring capillary width. In the table: K-Flu is a Lysine residue coupled with a fluorescein moiety, 4BrPhe is 4-bromo-Phenylalanine, Dod is Dodecanoyl, Dec designates Decanoyl, Oct is Octanoyl, and Hex is Hexanoyl.
The aortic ring assay was repeated in the presence of 10 μM concentration of peptides AB-033 (SEQ ID NO: 13) and AB-034 (SEQ ID NO: 14) together with the pro-angiogenetic protein VEGF.

[2] = system: blood vessels of mice (Evans-Blue leakage); test: Inhibition of blood-vessel leakiness (Evans-Blue leakage in mice); format: in vivo, mouse
Experimental: The peptide of SEQ ID NO: 12 (Myr-Gly-Nle-Arg-Pro-Tyr-NH2), or vehicle (10% PEG-400, 90% DDW), were injected i.p. to mice, in an amount of 20 or 40 mg/Kg. 5 min, 10 min, 1 hr or 4 hrs later, 0.2 ml per 25 g mouse (40 mg/Kg) of 5 mg/ml Evans-Blue solution in double distilled water (DDW) was injected i.p. The experiment was terminated after 30 min and skull was opened to view the brain surface (“Neurosurgery”) and assess the amount of Evans-Blue leaking from blood vessels.
Principle of peripheral vessels staining: Evans-Blue; it is a poly-anionic compound having a M.W. of 960 Dalton, that binds tightly to albumin and being used to track vessel-permeability. In case of blood-vessel leakiness, the Evans-Blue-albumin complex escapes from the blood-stream into the surrounding interstitial fluid with the result of blue coloring of the extremities and the bluish appearance at the brain surface.
In a specific experiment, 40 mg/kg of peptide of SEQ ID NO: 12 or vehicle were injected, each to 2 mice, i.p. 5 min before color injection. Evans-blue, at 40 mg/kg was then injected i.p. and 30 min later “Neurosurgery” was performed and the escape of the color from the blood stream was monitored as manifested by the bluish appearance of the brain surrounding tissue.
In another experiment, 40 mg/kg of peptide SEQ ID NO: 12 were injected to mice, i.p. 1 or 4 hours before color injection (Evans-blue, 40 mg/kg i.p. for 30 minutes). Control mice received i.p. injection of vehicle ([…]) 1 hour before color injection.

## Myr-Gly-Nle-Arg-Pro-Tyr-NH2 (Myristoyl-G[Nle]RPY-NH2; SMILES CCCCCCCCCCCCCC(=O)NCC(=O)N[C@@H](CCCC)C(=O)N[C@@H](CCCNC(=N)N)C(=O)N1CCC[C@H]1C(=O)N[C@@H](Cc1ccc(O)cc1)C(N)=O) [AB-017]
[1]
  rescue from death in septic-shock model: rescue mice from death
Mouse aortic rings; aortic ring assay, FIGS. 1A-1C and 2A-2C
  capillary / vessel formation (in words): induce massive capillary formation
Mouse aortic rings; peptide 10 μM, rings fixed after two weeks
  Capillary length 10 μM: 3,100 and 3,770
Mouse aortic rings; peptide 20 μM, rings fixed after two weeks
  Capillary length 20 μM: 11,200 and 15,300
[2]; 20 mg/kg i.p. 10 min before Evans-blue 40 mg/kg i.p., 30 minutes
  Evans-Blue leaking from blood vessels (brain and periphery): no color was leaking
[2]; 40 mg/kg i.p. 5 min before Evans-blue 40 mg/kg i.p., read 30 min later
  Evans-Blue leaking from blood vessels (brain): no color was leaking
[2]; 40 mg/kg i.p. 1 hr before Evans-blue 40 mg/kg i.p., 30 minutes
  Evans-Blue leaking from blood vessels (brain): no color was leaking
[2]; 40 mg/kg i.p. 4 hrs before Evans-blue 40 mg/kg i.p., 30 minutes
  Evans-Blue leaking from blood vessels (brain): only a partial protection
